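Method: 48-hour compound exposure of cells in 96-well plates, five concentrations, linear interpolation of endpoints. GI50 marks 50% less growth.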 The source made the active and inactive calls. Cut-off read from the data, not from the text of the source: active = GI50 up to about 1.1 µM and inactive = higher.
Key:
Experiment in all cases: DTP human tumour cell line panel, 48 h
ACHN = test system: ACHN
BT-549 = test system: BT-549
CCRF-CEM = test system: CCRF-CEM
EKVX = test system: EKVX
HCC 2998 = test system: HCC 2998
HCT-15 = test system: HCT-15
Hs-578T = test system: Hs-578T
K562 = test system: K562
LOX IMVI = test system: LOX IMVI
MCF7 = test system: MCF7
MDA-MB-231 = test system: MDA-MB-231
MOLT-4 = test system: MOLT-4
NCI-H460 = test system: NCI-H460
OVCAR-4 = test system: OVCAR-4
SK-MEL-28 = test system: SK-MEL-28
T47D = test system: T47D
TK-10 = test system: TK-10
UACC-257 = test system: UACC-257
UACC-62 = test system: UACC-62

Structure (SMILES) | GI50 (ACHN) | GI50 (BT-549) | GI50 (CCRF-CEM) | GI50 (EKVX) | GI50 (HCC 2998) | GI50 (HCT-15) | GI50 (Hs-578T) | GI50 (K562) | GI50 (LOX IMVI) | GI50 (MCF7) | GI50 (MDA-MB-231) | GI50 (MOLT-4) | GI50 (NCI-H460) | GI50 (OVCAR-4) | GI50 (SK-MEL-28) | GI50 (T47D) | GI50 (TK-10) | GI50 (UACC-257) | GI50 (UACC-62)
O=C(NCc1ccccc1)c1cc2ccccc2o/c1=N\c1ccccc1F | 19.5 µM (inactive) | > 100 µM (inactive) | > 100 µM (inactive) | 27.7 µM (inactive) | 23.1 µM (inactive) | 51.2 µM | 32.1 µM (inactive) | > 100 µM (inactive) | 14.9 µM (inactive) | 33.7 µM (inactive) | 17.6 µM (inactive) | > 100 µM (inactive) | 41.7 µM (inactive) | 13.5 µM (inactive) | 66.2 µM (inactive) | 16.6 µM (inactive) | 13.6 µM (inactive) | 34.4 µM (inactive) | 29.9 µM (inactive)
Cc1csc2nc3c(cnn3C)c(=S)n12 | 44.5 µM (inactive) | 39.5 µM (inactive) | 87.7 µM (inactive) | 14.9 µM (inactive) | > 100 µM (inactive) | 71.4 µM | 12.8 µM (inactive) | > 100 µM (inactive) | 51.6 µM (inactive) | > 100 µM (inactive) | > 10 µM (inactive) | > 100 µM (inactive) | > 100 µM (inactive) | > 100 µM (inactive) | > 100 µM (inactive) | > 10 µM (inactive) | 80.5 µM (inactive) | > 100 µM (inactive) | > 100 µM (inactive)
C=CCc1cccc2cc(C(=O)NCc3ccccc3)c(=N)oc12 | 19.9 µM (inactive) | 40.3 µM (inactive) | 32.6 µM (inactive) | 26.1 µM (inactive) | 25.1 µM (inactive) | 32.2 µM | 18.8 µM (inactive) | > 100 µM (inactive) | 42.7 µM (inactive) | 47.8 µM (inactive) | 30.6 µM (inactive) | > 100 µM (inactive) | 28.5 µM (inactive) | 41.4 µM (inactive) | 30.7 µM (inactive) | 24.5 µM (inactive) | – | 89.3 µM (inactive) | 22.8 µM (inactive)
N#CC(c1ccccc1)N(CCc1ccccc1)C(=O)c1ccccc1 (stereo not drawn) | > 91.8 µM (inactive) | > 56.2 µM (inactive) | > 100 µM (inactive) | > 77.4 µM (inactive) | > 100 µM (inactive) | > 100 µM | 26.2 µM (inactive) | > 100 µM (inactive) | > 100 µM (inactive) | > 100 µM (inactive) | 47.8 µM (inactive) | > 100 µM (inactive) | > 100 µM (inactive) | 51.2 µM (inactive) | > 100 µM (inactive) | > 100 µM (inactive) | > 75.2 µM (inactive) | > 100 µM (inactive) | 51.2 µM (inactive)
COc1ccc([C@H]2CC(=O)C[C@H](c3ccc(OC)cc3)C23C(=O)c2ccccc2C3=O)cc1 | 16.6 µM (inactive) | 5.65 µM (inactive) | 3.68 µM (inactive) | 4.59 µM (inactive) | 8.55 µM (inactive) | 4.02 µM | 4.78 µM (inactive) | 3.52 µM (inactive) | 4.16 µM (inactive) | 7.06 µM (inactive) | 2.39 µM (inactive) | 4.79 µM (inactive) | 3.65 µM (inactive) | 9.57 µM (inactive) | 9.64 µM (inactive) | 4.31 µM (inactive) | 7.82 µM (inactive) | 2.29 µM (inactive) | 4 µM (inactive)
O=C1/C(=C/c2ccc([N+](=O)[O-])cc2)CNC/C1=C\c1ccc([N+](=O)[O-])cc1 | 12.3 µM (inactive) | 2.69 µM (inactive) | 0.229 µM (active) | 9.86 µM (inactive) | 5.62 µM (inactive) | 1.13 µM | 4.36 µM (inactive) | 0.188 µM (active) | 2.09 µM (inactive) | 2.74 µM (inactive) | 2.69 µM (inactive) | 2.22 µM (inactive) | 2.59 µM (inactive) | 3.63 µM (inactive) | 1.82 µM (inactive) | 18.7 µM (inactive) | 33.1 µM (inactive) | 45.5 µM (inactive) | 12.3 µM (inactive)
